Experimental data: PubChem BioAssay (NCI)
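Five compound concentrations were applied to cells in 96-well plates for 48 hours; endpoints were derived by simple linear interpolation of the resulting dose-response curve. GI50 is the concentration that inhibits growth by half. TGI: total growth inhibition.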

Columns and labels:
Test in all cases: DTP human tumour cell line panel, 48 h
NCI-H522 lung = test system: NCI-H522 lung
A549 NSCLC = test system: A549 NSCLC
SF-295 CNS = test system: SF-295 CNS
A498 renal = test system: A498 renal
PC-3 prostate = test system: PC-3 prostate
T-47D breast = test system: T-47D breast
SK-MEL-5 melanoma = test system: SK-MEL-5 melanoma
MCF7 breast = test system: MCF7 breast
MDA-MB-435 = test system: MDA-MB-435
SF-539 CNS = test system: SF-539 CNS
HCT-15 colon = test system: HCT-15 colon
HT29 colon = test system: HT29 colon
TK-10 renal = test system: TK-10 renal
NCI-H23 lung = test system: NCI-H23 lung
NCI-H226 lung = test system: NCI-H226 lung
M14 melanoma = test system: M14 melanoma
HCT-116 colon = test system: HCT-116 colon
HL-60(TB) leukemia = test system: HL-60(TB) leukemia
OVCAR-5 ovarian = test system: OVCAR-5 ovarian
HS 578T breast = test system: HS 578T breast
OVCAR-3 ovarian = test system: OVCAR-3 ovarian
HOP-62 NSCLC = test system: HOP-62 NSCLC
SR leukemia = test system: SR leukemia
KM12 colon = test system: KM12 colon
UO-31 renal = test system: UO-31 renal
K-562 leukemia = test system: K-562 leukemia
HOP-92 NSCLC = test system: HOP-92 NSCLC
MOLT-4 leukemia = test system: MOLT-4 leukemia
ACHN renal = test system: ACHN renal
OVCAR-4 ovarian = test system: OVCAR-4 ovarian
UACC-62 melanoma = test system: UACC-62 melanoma
CAKI-1 renal = test system: CAKI-1 renal
SK-OV-3 ovarian = test system: SK-OV-3 ovarian
SNB-19 CNS = test system: SNB-19 CNS
BT-549 breast = test system: BT-549 breast
LOX IMVI melanoma = test system: LOX IMVI melanoma
MDA-MB-231 breast = test system: MDA-MB-231 breast
UACC-257 melanoma = test system: UACC-257 melanoma
COLO 205 colon = test system: COLO 205 colon
EKVX NSCLC = test system: EKVX NSCLC
SW-620 colon = test system: SW-620 colon
SN12C renal = test system: SN12C renal
SK-MEL-2 melanoma = test system: SK-MEL-2 melanoma
HCC-2998 colon = test system: HCC-2998 colon
OVCAR-8 ovarian = test system: OVCAR-8 ovarian
U251 CNS = test system: U251 CNS
RPMI-8226 leukemia = test system: RPMI-8226 leukemia
SF-268 CNS = test system: SF-268 CNS
IGROV1 ovarian = test system: IGROV1 ovarian
MALME-3M melanoma = test system: MALME-3M melanoma
NCI/ADR-RES ovarian = test system: NCI/ADR-RES ovarian
DU-145 prostate = test system: DU-145 prostate
CCRF-CEM leukemia = test system: CCRF-CEM leukemia
SNB-75 CNS = test system: SNB-75 CNS
786-0 renal = test system: 786-0 renal
SK-MEL-28 melanoma = test system: SK-MEL-28 melanoma
NCI-H460 lung = test system: NCI-H460 lung

## Cc1cc(Nc2ccc3c(c2)OCO3)c2cc3c(cc2n1)OCO3
NCI-H522 lung
  GI50: 2.35 µM
  TGI: 10 µM
A549 NSCLC
  GI50: 1.37 µM
  TGI: 11.6 µM
SF-295 CNS
  GI50: 0.563 µM
  TGI: 8.85 µM
A498 renal
  GI50: 0.812 µM
  TGI: 4.72 µM
PC-3 prostate
  GI50: 1.13 µM
  TGI: 11.5 µM
T-47D breast
  GI50: 4.69 µM
  TGI: 38.6 µM
SK-MEL-5 melanoma
  GI50: 0.821 µM
  TGI: 14.1 µM
MCF7 breast
  GI50: 0.376 µM
  TGI: 15 µM
MDA-MB-435
  GI50: 0.265 µM
  TGI: 1.37 µM
SF-539 CNS
  GI50: 2.12 µM
  TGI: 6.73 µM
HCT-15 colon
  GI50: 0.9 µM
  TGI: 16.6 µM
HT29 colon
  GI50: 0.878 µM
  TGI: 18.8 µM
TK-10 renal
  GI50: 5.62 µM
  TGI: 32.5 µM
NCI-H23 lung
  GI50: 3.93 µM
  TGI: 23.7 µM
NCI-H226 lung
  GI50: 2.94 µM
  TGI: 16.4 µM
M14 melanoma
  GI50: 1.19 µM
  TGI: 6.99 µM
HCT-116 colon
  GI50: 1.42 µM
  TGI: 15.8 µM
HL-60(TB) leukemia
  GI50: 0.745 µM
  TGI: > 19.9 µM
OVCAR-5 ovarian
  GI50: 4.24 µM
  TGI: 41.1 µM
HS 578T breast
  GI50: 1.08 µM
  TGI: 5.35 µM
OVCAR-3 ovarian
  GI50: 0.701 µM
  TGI: 3.03 µM
HOP-62 NSCLC
  GI50: 3.84 µM
  TGI: 20.3 µM
SR leukemia
  GI50: 0.532 µM
  TGI: > 84.4 µM
KM12 colon
  GI50: 1.05 µM
  TGI: 14.4 µM
UO-31 renal
  GI50: 1.63 µM
  TGI: 9.1 µM
K-562 leukemia
  GI50: 1.24 µM
  TGI: > 100 µM
HOP-92 NSCLC
  GI50: 1.48 µM
  TGI: 9.07 µM
MOLT-4 leukemia
  GI50: 2.51 µM
  TGI: > 54.5 µM
ACHN renal
  GI50: 6.23 µM
  TGI: 26.6 µM
OVCAR-4 ovarian
  GI50: 5.2 µM
  TGI: 44.4 µM
UACC-62 melanoma
  GI50: 2.08 µM
  TGI: 16.5 µM
CAKI-1 renal
  GI50: 2.55 µM
  TGI: 30.7 µM
SK-OV-3 ovarian
  GI50: 3.22 µM
  TGI: 30.1 µM
SNB-19 CNS
  GI50: 2.38 µM
  TGI: 20.9 µM
BT-549 breast
  GI50: 4.26 µM
  TGI: 26.2 µM
LOX IMVI melanoma
  GI50: 1.85 µM
  TGI: 11.5 µM
MDA-MB-231 breast
  GI50: 2.58 µM
  TGI: 17 µM
UACC-257 melanoma
  GI50: 3.57 µM
  TGI: 23.4 µM
COLO 205 colon
  GI50: 1.31 µM
  TGI: 4.03 µM
EKVX NSCLC
  GI50: 1.64 µM
  TGI: 13.2 µM
SW-620 colon
  GI50: 0.756 µM
  TGI: 15.4 µM
SN12C renal
  GI50: 4.14 µM
  TGI: 31.3 µM
SK-MEL-2 melanoma
  GI50: 4.54 µM
  TGI: 21.5 µM
HCC-2998 colon
  GI50: 2.33 µM
  TGI: 6.47 µM
OVCAR-8 ovarian
  GI50: 3.13 µM
  TGI: 15.5 µM
U251 CNS
  GI50: 2.8 µM
  TGI: 14.2 µM
RPMI-8226 leukemia
  GI50: 0.526 µM
  TGI: 3.6 µM
SF-268 CNS
  GI50: 3.69 µM
  TGI: 19.3 µM
IGROV1 ovarian
  GI50: 0.318 µM
  TGI: 3.8 µM
MALME-3M melanoma
  GI50: 2.08 µM
  TGI: 20.9 µM
NCI/ADR-RES ovarian
  GI50: 2.15 µM
  TGI: 18.5 µM
DU-145 prostate
  GI50: 2.91 µM
  TGI: 12.3 µM
CCRF-CEM leukemia
  GI50: 1.92 µM
  TGI: 10.2 µM
SNB-75 CNS
  GI50: 0.766 µM
  TGI: 7.38 µM
786-0 renal
  GI50: 4.2 µM
  TGI: 17.8 µM
SK-MEL-28 melanoma
  GI50: 1.93 µM
  TGI: 14.1 µM
NCI-H460 lung
  GI50: 2.3 µM
  TGI: 12.3 µM
